Source: patent US20130287721A1, “METHOD FOR COUNTERACTING AMMONIA MALODOR” (Firmenich SA, priority 2010, published 2013)

Tested on: ammonia lateralization threshold
Assay: Panel evaluation of the lateralization threshold (LT) of ammonia alone and in combination with a PRM
Type: in vivo, panellists
Design: LT of ammonia Panellist 1 Cond II / LT of ammonia Panellist 2 Cond II / LT of ammonia Panellist 3 Cond II: unit not given here
Conditions: for LT of ammonia Panellist 1 Cond II / LT of ammonia Panellist 2 Cond II / LT of ammonia Panellist 3 Cond II / LT of ammonia Panellist 1 %Δ / LT of ammonia Panellist 2 %Δ / LT of ammonia Panellist 3 %Δ: Table 4; for LT of ammonia Panellist 1 Cond II / LT of ammonia Panellist 2 Cond II / LT of ammonia Panellist 3 Cond II: ammonia stimulus combined with PRM stimulus; for LT of ammonia Panellist 1 %Δ / LT of ammonia Panellist 2 %Δ / LT of ammonia Panellist 3 %Δ / Ammonia LT Panellist 1 % Δ / Ammonia LT Panellist 2 % Δ / Ammonia LT Panellist 3 % Δ: change of ammonia LT, Cond II (with PRM) vs Cond I (ammonia alone); for Ammonia LT Panellist 1 Cond II / Ammonia LT Panellist 2 Cond II / Ammonia LT Panellist 1 % Δ / Ammonia LT Panellist 2 % Δ / Ammonia LT Panellist 3 Cond II / Ammonia LT Panellist 3 % Δ: Table 3; for Ammonia LT Panellist 1 Cond II / Ammonia LT Panellist 2 Cond II / Ammonia LT Panellist 3 Cond II: ammonia stimulus combined with PRM stimulus (concentration of Table 2 in propylene glycol)
Description: An ammonia stimulus test range was prepared. To ensure a stable level of ammonia in each stimulus, the ammonia headspace was stabilized by combining appropriate concentrations of NH4Cl, NaOH and H2O instead of simply adding ammonia directly to a solvent. Different concentrations of ammonia were used to create a stimulus test range by utilizing the appropriate amount of each compound (see Table 1).
A stimulus was also prepared for each PRM which was intended to be combined with ammonia stimuli. As the PRMs differed in their potency and to ensure that each PRM stimulus had approximately the same potency, an abbreviated dose response curve was constructed for each PRM by having four panellists evaluate the intensity of five concentration levels of the PRM dissolved in propylene glycol in duplicate. Assessments were made relative to the reference of 170 ppm allyl heptanoate in propylene glycol, which intensity was set to 0. Based upon the average scores, a rough intensity match was made for each PRM utilizing one of the following criteria. If one of the tested concentration levels averaged at or near zero, this concentration level was selected. If the rating created any sort of reasonable curve, the equation of the curve was determined and solved for 0 to arrive at the PRM assessment level. If multiple concentration levels were equally distant form the match level, then the standard deviation across individuals was considered, as were the individual responses. In general, the PRM level was selected to be on average close to 0 with low variability, with two panellists saying the level was a bit too high and the other two panellists saying the level was a bit too low. The PRMs for which a stimulus was prepared are listed in Table 2 below, together with the concentration of the PRM in the stimulus.
Volunteers were screened for their ability to lateralize ammonia stimuli. For the screening, the experimenter measured the participant's lateralization threshold for ammonia using a two-alternative forced choice modified staircase procedure employing a four-in, two-down, one-up rule with a five reversal criterion, as described below, On each trial volunteers were presented with a pair of glass bottles with clean, custom-made nose pieces. One bottle contained ammonia at a particular level selected from Table 1 and the other bottle contained water only. Each bottle was applied to one nostril using the nose piece. The volunteers were asked to identify which bottle in each pair contained ammonia.
If the ammonia stimulus was correctly identified in four consecutive trials, the concentration was decreased by one level of Table 1 on the next trial. If an incorrect answer was provided, the concentration was increased by one level of Table 1. Location (left or right nostril) of the stimulus was randomized over presentations. Testing continued until one of the following occurred: • 1) Five reversals (correct decision followed by an incorrect decision or vice versa) were achieved; • 2) The volunteer gave a correct response twice in a row at the lowest level of Table 1; or • 3) The volunteer gave an incorrect response at the highest level of Table 1.
In the first circumstance, threshold values were then calculated by averaging the last four reversals. In the second circumstance, the LT was the lowest level. In the third circumstance, the LT could not be calculated. Volunteers were considered qualified to participate in the panel evaluation if their LT could be calculated (Circumstance 1).
The LT of ammonia, both alone and in combination with diverse PRM, was determined. A repeated-measures design was used, such that the LT with and without the addition of a PRM were both measured at the same time in one person by utilizing interwoven stimuli presentations. The LT for each PRM was measured by two to three panellists, the third panellists being included if the results of the first to panellists disagreed. […]

## C[C@@H]1CC[C@H]2[C@H](C)C(=O)O[C@@H]2C1 [(+)-(3S,3AS,6R,7AR)-perhydro-3,6-dimethyl-benzo[B]furan-2-one]
  LT of ammonia Panellist 1 Cond II: 19.6
  LT of ammonia Panellist 2 Cond II: 3.5
  LT of ammonia Panellist 3 Cond II: 11.1
  LT of ammonia Panellist 1 %Δ: 885%
  LT of ammonia Panellist 2 %Δ: 4929%
  LT of ammonia Panellist 3 %Δ: 1682%

## COc1cc(C)ccc1O [Creosol H]
  Ammonia LT Panellist 1 Cond II: 17.9 ppm
  Ammonia LT Panellist 2 Cond II: 7.3 ppm
  Ammonia LT Panellist 1 % Δ: −68%
  Ammonia LT Panellist 2 % Δ: −90%

## CCCOC(=O)[C@H](C)OC(C)(C)CC [Sclareolate ®, Propyl (S)-2-(1,1-dimethylpropoxy)propanoate]
  LT of ammonia Panellist 1 Cond II: 1.1
  LT of ammonia Panellist 2 Cond II: 1.1
  LT of ammonia Panellist 3 Cond II: 0.6
  LT of ammonia Panellist 1 %Δ: 465%
  LT of ammonia Panellist 2 %Δ: 223%
  LT of ammonia Panellist 3 %Δ: −2%

## CC(C=O)Cc1ccc(C(C)(C)C)cc1 (stereo not shown) [Lilial ®, 3-(4-Tert-butylphenyl)-2-methylpropanal]
  Ammonia LT Panellist 1 Cond II: 22.9 ppm
  Ammonia LT Panellist 2 Cond II: 7.3 ppm
  Ammonia LT Panellist 3 Cond II: 19.1 ppm
  Ammonia LT Panellist 1 % Δ: 300%
  Ammonia LT Panellist 2 % Δ: −96%
  Ammonia LT Panellist 3 % Δ: 0%

## CC(C)=CCC[C@](C)(O)[C@@H]1CC=C(C)CC1 [Alpha-bisabolol]
  Ammonia LT Panellist 1 Cond II: 7.3 ppm
  Ammonia LT Panellist 2 Cond II: 172.7 ppm
  Ammonia LT Panellist 1 % Δ: 213%
  Ammonia LT Panellist 2 % Δ: 655%

## Cedrenol
  Ammonia LT Panellist 1 Cond II: 2.3 ppm
  Ammonia LT Panellist 2 Cond II: 60 ppm
  Ammonia LT Panellist 3 Cond II: 2.3 ppm
  Ammonia LT Panellist 1 % Δ: −68%
  Ammonia LT Panellist 2 % Δ: 162%
  Ammonia LT Panellist 3 % Δ: −96%

## CC1=C(C=O)C(C)(C)CC=C1 [Safranal]
  Ammonia LT Panellist 1 Cond II: 22.9 ppm
  Ammonia LT Panellist 2 Cond II: 2.2E−03 ppm
  Ammonia LT Panellist 1 % Δ: 20%
  Ammonia LT Panellist 2 % Δ: 3088%

## CCC/C(C)=C\COC(C)=O [Aladinate ®, (Z)-3-methyl-2-hexenyl acetate]
  Ammonia LT Panellist 1 Cond II: 19.1 ppm
  Ammonia LT Panellist 2 Cond II: 71.9 ppm
  Ammonia LT Panellist 1 % Δ: −16%
  Ammonia LT Panellist 2 % Δ: 0%

## Mixture of (E)-4-(2,2,C-3,T-6-tetramethyl-R-1-cyclohexyl)-3-buten-2-one and (E)-4-(2,2,T-3,T-6-tetramethyl-R-1-cyclohexyl)-3-buten-2-one [Myrrhone ®]
  LT of ammonia Panellist 1 Cond II: 11.1
  LT of ammonia Panellist 2 Cond II: 3.5
  LT of ammonia Panellist 3 Cond II: 3.5
  LT of ammonia Panellist 1 %Δ: 77%
  LT of ammonia Panellist 2 %Δ: 212%
  LT of ammonia Panellist 3 %Δ: 77%

## Cc1ccc2c(c1)CC(C)(CO)C2 (stereo not shown) [Lilyflore ®, 2,5-Dimethyl-2-indanmethanol]
  Ammonia LT Panellist 1 Cond II: 60.0 ppm
  Ammonia LT Panellist 2 Cond II: 176.5 ppm
  Ammonia LT Panellist 3 Cond II: 7.3 ppm
  Ammonia LT Panellist 1 % Δ: 162%
  Ammonia LT Panellist 2 % Δ: −6%
  Ammonia LT Panellist 3 % Δ: −84%

## CCOC(=O)C1CCC(C(=O)OCC)CC1 (stereo not shown) [Fructalate ®, Diethyl 1,4-cyclohexane dicarboxylate]
  Ammonia LT Panellist 1 Cond II: 56.3 ppm
  Ammonia LT Panellist 2 Cond II: 188.3 ppm
  Ammonia LT Panellist 1 % Δ: 194%
  Ammonia LT Panellist 2 % Δ: 214%

## C/C=C/C(=O)C1C(C)C=CCC1(C)C (stereo not shown) [Delta damascone ®, Delta damascone]
  Ammonia LT Panellist 1 Cond II: 7.3 ppm
  Ammonia LT Panellist 2 Cond II: 225.5 ppm
  Ammonia LT Panellist 3 Cond II: 7.3 ppm
  Ammonia LT Panellist 1 % Δ: −68%
  Ammonia LT Panellist 2 % Δ: 214%
  Ammonia LT Panellist 3 % Δ: −96%

## CC/C=C\CCO [(Z)-3-hexen-1-ol]
  Ammonia LT Panellist 1 Cond II: 2.3 ppm
  Ammonia LT Panellist 2 Cond II: 225.5 ppm
  Ammonia LT Panellist 3 Cond II: 56.3 ppm
  Ammonia LT Panellist 1 % Δ: −68%
  Ammonia LT Panellist 2 % Δ: 0%
  Ammonia LT Panellist 3 % Δ: 671%

## CCC=CCC=C/C=C/C(=O)OCC [Ethyl (2E)-2,4,7-decatrienoate]
  LT of ammonia Panellist 1 Cond II: 1.1
  LT of ammonia Panellist 2 Cond II: 2.0
  LT of ammonia Panellist 3 Cond II: 2.0
  LT of ammonia Panellist 1 %Δ: 223%
  LT of ammonia Panellist 2 %Δ: 469%
  LT of ammonia Panellist 3 %Δ: 2743%

## CCCC(C)C(=O)OCC (stereo not shown) [Applinate ®, Ethyl 2-methyl-pentanoate]
  Ammonia LT Panellist 1 Cond II: 2.3 ppm
  Ammonia LT Panellist 2 Cond II: 55.1 ppm
  Ammonia LT Panellist 1 % Δ: −62%
  Ammonia LT Panellist 2 % Δ: −23%

## CC(C)=CCC/C(C)=C/CO [Geraniol]
  Ammonia LT Panellist 1 Cond II: 6.1 ppm
  Ammonia LT Panellist 2 Cond II: 60.0 ppm
  Ammonia LT Panellist 1 % Δ: −68%
  Ammonia LT Panellist 2 % Δ: −73%

## CCOC(=O)C(C)CC (stereo not shown) [Ethyl 2-methylbutanoate]
  LT of ammonia Panellist 1 Cond II: 19.6
  LT of ammonia Panellist 2 Cond II: 11.1
  LT of ammonia Panellist 3 Cond II: 11.1
  LT of ammonia Panellist 1 %Δ: 214%
  LT of ammonia Panellist 2 %Δ: 213%
  LT of ammonia Panellist 3 %Δ: 77%

## CCCc1ccc2c(c1)OCC(=O)CO2 [7-Propyl-2H,4H-1,5-benzodioxepin-3-one]
  LT of ammonia Panellist 1 Cond II: 11.1
  LT of ammonia Panellist 2 Cond II: 6.3
  LT of ammonia Panellist 3 Cond II: 3.5
  LT of ammonia Panellist 1 %Δ: 456%
  LT of ammonia Panellist 2 %Δ: 453%
  LT of ammonia Panellist 3 %Δ: 212%

## C=CCOC(=O)CCCCCC [Allyl heptanoate]
  Ammonia LT Panellist 1 Cond II: 71.9 ppm
  Ammonia LT Panellist 2 Cond II: 225.5 ppm
  Ammonia LT Panellist 1 % Δ: 28%
  Ammonia LT Panellist 2 % Δ: 20%

## CCCCCC1C(=O)CCC1CC(=O)OC (stereo not shown) [Hedione ®, Methyl dihydrojasmonate]
  Ammonia LT Panellist 1 Cond II: 7.5 ppm
  Ammonia LT Panellist 2 Cond II: 22.9 ppm
  Ammonia LT Panellist 3 Cond II: 6.1 ppm
  Ammonia LT Panellist 1 % Δ: 23%
  Ammonia LT Panellist 2 % Δ: −90%
  Ammonia LT Panellist 3 % Δ: −68%

## C=C(CC(C)CO)C1CC=C(C)C1(C)C (stereo not shown) [2-Methyl-4-(2,2,3-trimethyl-3-cyclopenten-1-yl)-4-penten-1-ol]
  LT of ammonia Panellist 1 Cond II: 3.5
  LT of ammonia Panellist 2 Cond II: 3.5
  LT of ammonia Panellist 3 Cond II: 2.0
  LT of ammonia Panellist 1 %Δ: 212%
  LT of ammonia Panellist 2 %Δ: 212%
  LT of ammonia Panellist 3 %Δ: 852%

## CCC(=O)OCC(C)(C)O[C@@H](C)[C@@H]1CCCC(C)(C)C1 [Helvetolide ®, (+)-(1S,1′R)-2-[1-(3′,3′-dimethyl-1′-cyclohexyl)ethoxy]-2-methylpropyl propanoate]
  LT of ammonia Panellist 1 Cond II: 11.1
  LT of ammonia Panellist 2 Cond II: 2.0
  LT of ammonia Panellist 3 Cond II: 2.0
  LT of ammonia Panellist 1 %Δ: 454%
  LT of ammonia Panellist 2 %Δ: 426%
  LT of ammonia Panellist 3 %Δ: 895%

## Mixture of 3-(4-ethylphenyl)-2,2-dimethylpropanal and 3(2-ethylphenyl)-2,2-dimethylpropanal [Floralozone]
  LT of ammonia Panellist 1 Cond II: 2.0
  LT of ammonia Panellist 2 Cond II: 6.3
  LT of ammonia Panellist 3 Cond II: 3.5
  LT of ammonia Panellist 1 %Δ: 895%
  LT of ammonia Panellist 2 %Δ: 214%
  LT of ammonia Panellist 3 %Δ: 77%

## CCOC(=O)C1=C(C)C=CCC1(C)C [Ethyl 2,6,6-trimethyl-1,3-cyclohexadiene-1-carboxylate]
  LT of ammonia Panellist 1 Cond II: 0.6
  LT of ammonia Panellist 2 Cond II: 0.6
  LT of ammonia Panellist 3 Cond II: 0.2
  LT of ammonia Panellist 1 %Δ: 786%
  LT of ammonia Panellist 2 %Δ: 215%
  LT of ammonia Panellist 3 %Δ: 200%

## CCCCOC(C)=O [Butyl acetate]
  Ammonia LT Panellist 1 Cond II: 7.3 ppm
  Ammonia LT Panellist 2 Cond II: 225.5 ppm
  Ammonia LT Panellist 1 % Δ: 213%
  Ammonia LT Panellist 2 % Δ: 1079%

## CC(C)=CCCC(C)CCO (stereo not shown) [Citronellol]
  Ammonia LT Panellist 1 Cond II: 60.0 ppm
  Ammonia LT Panellist 2 Cond II: 225.5 ppm
  Ammonia LT Panellist 1 % Δ: 2978%
  Ammonia LT Panellist 2 % Δ: 20%
